Results as given in patent publication US8119633B2, “Substituted sulfonamide compounds” (Gruenenthal GmbH, priority 2007, dated 2012).

Key:
[1] = molecular target: T1, human bradykinin receptor 1 (B1R) (Homo sapiens, UniProt P46663); experiment: Functional study on the bradykinin receptor 1 (B1R), human: FLIPR Ca2+ influx assay; format: cell-based; details: test substance 10 μM, CHO K1 cells transfected with human B1R, Lys-Des-Arg9-bradykinin at EC80, Ca2+ influx (Fluo-4, FLIPR); for inhibition at 10 µM: read-out: B1R antagonism, human [10 μM] % inhibition
T1 construct: expressed in transfected cells; host or cells: CHO K1 cells
T1 sequence (P46663 1-353): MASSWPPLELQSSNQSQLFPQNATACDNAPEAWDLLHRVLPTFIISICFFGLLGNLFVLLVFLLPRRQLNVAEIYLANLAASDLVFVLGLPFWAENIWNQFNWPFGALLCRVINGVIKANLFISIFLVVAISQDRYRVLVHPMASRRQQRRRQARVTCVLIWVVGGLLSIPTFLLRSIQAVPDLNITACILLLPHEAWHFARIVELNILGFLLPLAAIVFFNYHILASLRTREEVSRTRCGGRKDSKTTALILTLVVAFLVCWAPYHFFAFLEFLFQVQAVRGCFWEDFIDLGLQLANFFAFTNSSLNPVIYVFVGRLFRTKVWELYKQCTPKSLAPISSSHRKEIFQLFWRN
Outline: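 CHO K1 cells stably expressing human B1R were loaded with Fluo-4, and Ca2+ fluorescence was read on FLIPR (ex 488/em 540 nm). Compound was added first (10 μM for % activation against Lys-Des-Arg9-bradykinin ≥0.5 nM). After 10-20 min, Lys-Des-Arg9-bradykinin was added at EC80 for % inhibition; IC50 came from concentration series, n=2-3, N≥2.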

[2] = molecular target: T2, bradykinin receptor 1 (B1R) of the rat (Rattus norvegicus, UniProt P97583); experiment: Functional study on the bradykinin receptor 1 (B1R), rat: FLIPR Ca2+ influx assay; format: cell-based; details: test substance 10 μM, CHO K1 cells transfected with rat B1R, Des-Arg9-bradykinin at EC80, Ca2+ influx (Fluo-4, FLIPR); for inhibition at 10 µM: read-out: B1R antagonism, rat [10 μM] % inhibition
T2 construct: expressed in transfected cells; host or cells: CHO K1 cells
T2 sequence (P97583 1-337): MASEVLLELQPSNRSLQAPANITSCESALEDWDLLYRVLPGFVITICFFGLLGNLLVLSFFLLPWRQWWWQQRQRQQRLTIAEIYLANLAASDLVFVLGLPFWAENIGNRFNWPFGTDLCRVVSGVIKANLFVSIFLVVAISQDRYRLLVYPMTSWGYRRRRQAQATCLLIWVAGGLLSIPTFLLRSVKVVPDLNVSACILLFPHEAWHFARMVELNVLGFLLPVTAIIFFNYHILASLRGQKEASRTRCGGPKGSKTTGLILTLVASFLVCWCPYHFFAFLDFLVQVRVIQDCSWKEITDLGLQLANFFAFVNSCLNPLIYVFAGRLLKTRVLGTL
Outline: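 CHO K1 cells stably expressing rat B1R, Fluo-4-loaded, read on FLIPR (ex 488/em 540 nm, peak fluorescence). Test substances added first (agonism vs 10 μM Des-Arg9-bradykinin), then after 10-20 min Des-Arg9-bradykinin at EC80; % inhibition and IC50 from concentration series, n=2-3, N≥2.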

human μ-opiate receptor = molecular target: T3, human μ-opiate receptor (Homo sapiens, UniProt P35372); experiment: Affinity for the human μ-opiate receptor ([3H]-naloxone displacement, SPA); details: test substance 1 μmol/l, inhibition of specific [3H]-naloxone binding, CHO-K1 receptor membrane preparation; for inhibition at 1 µM: read-out: μ-Opioid receptor [1 μM] % inhibition
T3 construct: purchased PerkinElmer Life Sciences, Zaventem, Belgium RB-HOM; host or cells: CHO-K1 cells (membrane preparation)
Experimental: Studies of the Effectiveness of the Compounds According to the Invention Method for determining the affinity for the human μ-opiate receptor
The receptor affinity for the human μ-opiate receptor is determined in a homogeneous batch on microtitre plates. To this end, serial dilutions of the substances to be tested are incubated for 90 minutes at room temperature with a receptor membrane preparation (15-40 μg of protein/250 μl of incubation batch) of CHO-K1 cells, which express the human μ-opiate receptor (RB-HOM receptor membrane preparation from PerkinElmer Life Sciences, Zaventem, Belgium), in the presence of 1 nmol/l of the radioactive ligand [^3H]-naloxone (NET719, PerkinElmer Life Sciences, Zaventem, Belgium) and 1 mg of WGA-SPA beads (wheatgerm agglutinin SPA beads from Amersham/Pharmacia, Freiburg, Germany) in a total volume of 250 μl. The incubation buffer used is 50 mmol/l of Tris-HCl supplemented with 0.06 wt. % bovine serum albumin. In order to determine non-specific binding, 100 μmol/l of naloxone is additionally added. When the ninety-minute incubation time has ended, the microtitre plates are centrifuged off for 20 minutes at 1000 g and the radioactivity is measured in a β-counter (Microbeta-Trilux, PerkinElmer Wallac, Freiburg, Germany). The percentage displacement of the radioactive ligand from its binding to the human μ-opiate receptor at a concentration of the test substances of 1 μmol/l is determined and stated as the percentage inhibition of specific binding. On the basis of the percentage displacement by different concentrations of the test substances, IC50 inhibitory concentrations, which effect 50% displacement of the radioactive ligand, are calculated. Ki values for the test substances are obtained by conversion by means of the Cheng-Prusoff equation.

T3 sequence (P35372 whole entry): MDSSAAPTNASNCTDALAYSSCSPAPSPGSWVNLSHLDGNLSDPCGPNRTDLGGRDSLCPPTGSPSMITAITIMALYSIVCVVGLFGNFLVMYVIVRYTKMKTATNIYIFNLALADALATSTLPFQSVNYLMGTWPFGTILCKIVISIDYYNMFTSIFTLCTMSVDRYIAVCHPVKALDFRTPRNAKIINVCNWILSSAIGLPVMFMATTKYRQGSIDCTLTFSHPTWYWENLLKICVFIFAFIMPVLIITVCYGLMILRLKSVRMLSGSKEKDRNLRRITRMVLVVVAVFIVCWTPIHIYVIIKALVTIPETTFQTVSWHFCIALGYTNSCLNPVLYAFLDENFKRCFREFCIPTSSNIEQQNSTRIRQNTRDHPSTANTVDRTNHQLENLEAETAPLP

Row | SMILES | inhibition at 10 µM [1] [%] | inhibition at 10 µM [2] [%] | inhibition at 1 µM (human μ-opiate receptor) [%] | B1R antagonism, human [10 μM] % inhibition [1] [%] | B1R antagonism, rat [10 μM] % inhibition [2] [%] | μ-Opioid receptor [1 μM] % inhibition (human μ-opiate receptor) [%]
1 | O=C(CC1C(=O)NCCN1S(=O)(=O)c1ccc(Cl)cc1Cl)NCC1CCC(C(c2ccccc2)N2CCCC2)CC1 (stereo not drawn) [Example 58, 2-[1-(2,4-dichloro-benzenesulfonyl)-3-oxo-piperazin-2-yl]-N-[4-(phenyl-pyrrolidin-1-yl-methyl)-cyclohexylmethyl]-acetamide] | 104 | 11 | 70 |  |  | 
2 | O=C(CC1C(=O)NCCN1S(=O)(=O)c1ccc(Cl)cc1Cl)NC1CCC(C(CCc2ccccc2)N2CCOCC2)CC1 (stereo not drawn) [Example 60, 2-[1-(2,4-dichloro-benzenesulfonyl)-3-oxo-piperazin-2-yl]-N-[4-(1-morpholin-4-yl-3-phenyl-propyl)-cyclohexyl]-acetamide] | 104 | 8 | 54 |  |  | 
3 | CN(C)C(c1ccccc1)C1CCC(NC(=O)CCCCN(C)S(=O)(=O)c2c(Cl)cc(Cl)cc2Cl)CC1 (stereo not drawn) [Example 5, N—(4-((Dimethylamino)(phenyl)methyl)cyclohexyl)-5-(2,4,6-trichloro-N-methylphenylsulfonamido)pentanamide] | 101 | 60 | 89 |  |  | 
4 | CN1CCN(C(c2ccccc2)C2CCN(C(=O)CC(NS(=O)(=O)c3ccc4ccccc4c3)c3ccccc3)CC2)CC1 (stereo not drawn) [Example 114, N-(3-(4-((4-methylpiperazin-1-yl)(phenyl)methyl)piperidin-1-yl)-3-oxo-1-phenylpropyl)naphthalene-2-sulfonamide] | 93 | 71 | 40 |  |  | 
5 | COc1cc(C)c(S(=O)(=O)N(C)CCCNC(=O)NC2CCC(C(c3ccccc3)N(C)C)CC2)c(C)c1C (stereo not drawn) [Example 1, N—(3-{3-[4-(Dimethylaminophenylmethyl)cyclohexyl]ureido}propyl)-4-methoxy-2,3,6,N-tetramethylbenzenesulfonamide] | 71.5 | 56 | 94 |  |  | 
6 | O=C(CC1C(=O)Nc2ccccc2N1S(=O)(=O)c1ccc(Cl)c(Cl)c1)NCC1CCC(C(CCc2ccccc2)N2CCCC2)CC1 (stereo not drawn) [Example 66, 2-[1-(3,4-dichloro-benzenesulfonyl)-3-oxo-1,2,3,4-tetrahydro-quinoxalin-2-yl]-N-[4-(3-phenyl-1-pyrrolidin-1-yl-propyl)-cyclohexylmethyl]-acetamide] | 102 | 96 | 11 |  |  | 
7 | CN1CCN(C(c2cccc(F)c2)C2CCN(C(=O)CC3CCCCN3S(=O)(=O)c3cccc(C(F)(F)F)c3)CC2)CC1 (stereo not drawn) [Example 115, 1-(4-((3-fluorophenyl)(4-methylpiperazin-1-yl)methyl)piperidin-1-yl)-2-(1-(3-(trifluoromethyl)phenylsulfonyl)piperidin-2-yl)ethanone] | 87 | 52 | 11 |  |  | 
8 | COc1cc(C)c(S(=O)(=O)N(C)CCCNC(=O)NCC2CCC(C(c3ccccc3)N(C)C)CC2)c(C)c1C (stereo not drawn) [Example 2] |  |  |  | 55.6 | 43 | 97
9 | Cc1cc(S(=O)(=O)N2CCCCC2CCC(=O)N2CCC(C(c3ccc(F)cc3)N3CCN(C)CC3)CC2)c(C)cc1Cl (stereo not drawn) [Example 121, 3-(1-(4-chloro-2,5-dimethylphenylsulfonyl)piperidin-2-yl)-1-(4-((4-fluorophenyl)(4-methylpiperazin-1-yl)methyl)piperidin-1-yl)propan-1-one] | 105 | 58 | 6 |  |  | 
10 | O=C(CC1CCCCN1S(=O)(=O)c1ccc(Cl)c(Cl)c1)NCC1CCC(C(CCc2ccccc2)N2CCCC2)CC1 (stereo not drawn) [Example 84, 2-[1-(3,4-dichloro-benzenesulfonyl)-piperidin-2-yl]-N-[4-(3-phenyl-1-pyrrolidin-1-yl-propyl)-cyclohexylmethyl]-acetamide] | 95.4 | 19 | 90 |  |  | 
11 | O=C(CC1C(=O)NCCN1S(=O)(=O)c1ccc(Cl)cc1Cl)NCC1CCC(C(c2ccccc2)N2CCOCC2)CC1 (stereo not drawn) [Example 55, 2-[1-(2,4-dichloro-benzenesulfonyl)-3-oxo-piperazin-2-yl]-N-[4-(morpholin-4-yl-phenyl-methyl)-cyclohexylmethyl]-acetamide] | 103 | 26 | 24 |  |  | 
12 | CN1CCN(C(c2ccccc2)C2CCC(NC(=O)CC3CCCCN3S(=O)(=O)c3ccc(Cl)c(Cl)c3)CC2)CC1 (stereo not drawn) [Example 88, 2-[1-(3,4-dichloro-benzenesulfonyl)-piperidin-2-yl]-N-{4-[(4-methyl-piperazin-1-yl)-phenyl-methyl]-cyclohexyl}-acetamide] | 101 | 61 | 58 |  |  | 
13 | O=C(CC1CCCCN1S(=O)(=O)c1ccc(Cl)c(Cl)c1)NC1CCC(C(CCc2ccccc2)N2CCCCC2)CC1 (stereo not drawn) [Example 86, 2-[1-(3,4-dichloro-benzenesulfonyl)-piperidin-2-yl]-N-[4-(3-phenyl-1-piperidin-1-yl-propyl)-cyclohexyl]-acetamide] | 101 | 30 | 54 |  |  | 
14 | O=C(CC1C(=O)Nc2ccccc2N1S(=O)(=O)c1ccc(Cl)c(Cl)c1)NCC1CCC(C(c2ccccc2)N2CCOCC2)CC1 (stereo not drawn) [Example 64, 2-[1-(3,4-dichloro-benzenesulfonyl)-3-oxo-1,2,3,4-tetrahydro-quinoxalin-2-yl]-N-[4-(morpholin-4-yl-phenyl-methyl)-cyclohexylmethyl]-acetamide] | 104 | 29 | 10 |  |  | 
15 | O=C(CC1CCCCN1S(=O)(=O)c1ccc(Cl)c(Cl)c1)NCC1CCC(C(CCc2ccccc2)N2CCOCC2)CC1 (stereo not drawn) [Example 83, 2-[1-(3,4-dichloro-benzenesulfonyl)-piperidin-2-yl]-N-[4-(1-morpholin-4-yl-3-phenyl-propyl)-cyclohexylmethyl]-acetamide] | 37 | -3 | 22 |  |  | 
16 | O=C(CC1C(=O)Nc2ccccc2N1S(=O)(=O)c1ccc(Cl)c(Cl)c1)NC1CCC(C(c2ccccc2)N2CCCC2)CC1 (stereo not drawn) [Example 103, 2-(1-(3,4-dichlorophenylsulfonyl)-3-oxo-1,2,3,4-tetrahydroquinoxalin-2-yl)-N-(4-(phenyl(pyrrolidin-1-yl)methyl)cyclohexyl)acetamide] | 103 | 37 | 71 |  |  | 
